Values quoted from earlier work, collected in patent US20260374742A1, “METHODS OF PREPARING CARBAMATE DERIVATIVES” (NodThera Limited, priority 2022, published 2026).

tested on: NLRP3 inflammasome; settings: literature report

Row | Compound | inhibition of NLRP3 activation (in words)
1 | O=[N+]([O-])C=Cc1ccc2c(c1)OCO2 [3,4-methylenedioxy-β-nitrostyrene] | impair NLRP3 activation
2 | NC[C@@H]1O[C@H](c2ccccc2)Cc2c1ccc(O)c2O [A-68930] | impair NLRP3 activation
3 | Cc1ccc(S(=O)(=O)/C=C/C#N)cc1 [Bay 11-7082] | impair NLRP3 activation
4 | CC(C)(O)c1coc(S(=O)(=O)NC(=O)Nc2c3c(cc4c2CCC4)CCC3)c1 [CP-456,773] | specific inhibitor of NLRP3 activation
5 | COc1ccc(Cl)cc1C(=O)NCCc1ccc(S(=O)(=O)NC(=O)NC2CCCCC2)cc1 [Glyburide] | specific inhibitor of NLRP3 activation
6 | OC[C@H]1O[C@@H](c2ccc(Cl)c(Cc3ccc(O[C@H]4CCOC4)cc3)c2)[C@H](O)[C@@H](O)[C@@H]1O [epigliflozin] | impair NLRP3 activation
7 | CNCCC(Oc1ccc(C(F)(F)F)cc1)c1ccccc1 (stereo not shown) [fluoxetine] | impair NLRP3 activation
8 | OC(CNCC(O)C1CCc2cc(F)ccc2O1)C1CCc2cc(F)ccc2O1 (stereo not shown) [nebivolol] | impair NLRP3 activation
9 | C=C1C(=O)O[C@H]2[C@H]1CC/C(C)=C/CC[C@@]1(C)O[C@@H]21 [parthenolide] | impair NLRP3 activation
10 | O=c1c(O)c(-c2ccc(O)c(O)c2)oc2cc(O)cc(O)c12 [quercetin] | suppress NLRP3 activation
11 | C[S+]([O-])CCCCN=C=S (stereo not shown) [sulforaphane] | suppress NLRP3 activation
12 | salvianolic acid | suppress NLRP3 activation

same assay, conditions: literature; concentrations unlikely attainable in vivo

Row | Compound | concentrations at which NLRP3 activation is inhibited (in words)
13 | COc1ccc(Cl)cc1C(=O)NCCc1ccc(S(=O)(=O)NC(=O)NC2CCCCC2)cc1 [Glyburide] | micromolar concentrations
